Laboratory results: PubChem BioAssay AID2745 (NMMLSC, 2010)
Active and inactive are the calls of the source. How the calls were made is not given here.

test: concentration series on yeast TOR reporter LAP4 – cell-based, MLPCN hits, flow cytometry, dose response (AID 2745);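 further: yeast exposed to compound for three hours at 30 degrees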; settings: S. cerevisiae LAP4-GFP reporter, flow cytometry fluorescence; at 33 µM (top of the series)

SMILES	LAP4-GFP fluorescence (kMESF)
O=C(Nc1nnc(-c2ccc(F)cc2)o1)c1cc(Cl)sc1Cl	6.71 kMESF (inactive)
Cc1ccc(C)c(/C=C/C(=O)c2ccccc(=O)c2O)c1	-0.2 kMESF (inactive)
Cc1cccc(N2C(=O)C(Cl)=C(Nc3c(C)n(C)n(-c4ccccc4)c3=O)C2=O)c1C	6.11 kMESF (inactive)
C[C@@]12C(=O)OC(=O)[C@]1(C)C1CCC2O1	9.15 kMESF (inactive)
Oc1ccc(CNc2ccccc2)c2cccnc12	3.88 kMESF (inactive)
O=C(O)c1ccn2c(C(=O)c3ccccc3)c(-c3ccccc3)cc2c1	7.25 kMESF (inactive)
O=C1C=CC(=O)N1c1ccc(OC(F)F)cc1	4.2 kMESF (inactive)
O=C1C=C(c2ccc(Cl)cc2)C(=O)N1Nc1ccccc1	5.81 kMESF (inactive)
CCn1c(=O)c(C(C)=O)c(O)c2ccccc21	6.66 kMESF (inactive)
CC(=O)NN1C(=O)/C(=C/c2ccc(Br)o2)SC1=S	2.52 kMESF (inactive)
CC(C)(C)C(=O)NC(=S)NNC(=O)c1sc2ccccc2c1Cl	8.89 kMESF (inactive)
COc1ccc(C(=O)NC(=S)NNC(=O)CCc2ccccc2)cc1	5.9 kMESF (inactive)
O=C1N(c2ccccc2C(F)(F)F)O[C@@]1(c1ccccc1)C1CCCC1	2.93 kMESF (inactive)
O=C(Nc1nnc(-c2ccc3c(c2)CCCC3)o1)c1ccc(Cl)cc1Cl	5.77 kMESF (inactive)
O=C(NC(=S)NNC(=O)c1ccc(Cl)cc1Cl)c1cccnc1	4.37 kMESF (inactive)
C[C@@H]1C[C@@H]([C@H](O)CC2CC(=O)NC(=O)C2)C(=O)[C@@H](C)C1	6.31 kMESF (inactive)
CCCCCCCCCCCCCCCC[n+]1cccc2ccccc21	1.21 kMESF (inactive)
CCC(C)/C(C)=N/NC(=O)c1ccc(COc2ccc(Cl)c(C)c2)cc1 (configuration not stated)	4.7 kMESF (inactive)
O=S(=O)(/N=C(/Sc1ccccc1)c1ccccc1)c1ccccc1	11.4 kMESF (inactive)
[O-][n+]1cccc2c(Br)cc(Br)c(O)c21	12.9 kMESF (inactive)
CCN1/C(=C/c2ccc3cc(C)ccc3[n+]2CC)Sc2ccc3sccc3c21	10.7 kMESF (inactive)
CC(c1ccccc1)N1C(=O)/C(=C/c2ccncc2)SC1=S (configuration not stated)	11.3 kMESF (inactive)

SMILES	LAP4-GFP fluorescence (kMESF)
CCCS(=O)(=O)c1nnnn1-c1cccc(OC)c1	18.2 kMESF (inactive)
CN(C)C(=O)Oc1ccnc2cc(Cl)ccc12	2.83 kMESF (inactive)
O=C(/C=C/c1ccccc1)c1cc(Br)ccc(=O)c1O	-10.1 kMESF (inactive)
CS(=O)(=O)c1sc(C#N)c2c1C(=O)CC(c1ccccc1)C2 (configuration not stated)	14.6 kMESF (inactive)
O=C(OCC(=O)N1CCN(C(=O)c2ccco2)CC1)c1cc(-c2cccc(Br)c2)nc2ccccc12	9.27 kMESF (inactive)
O=c1c2sc(-c3ccccc3)cc2nc2n1CCC2	5.96 kMESF (inactive)
COc1cc(NC(=O)c2ccc(C)cc2)ccc1NC(=O)c1cc2ccccc2o1	3.61 kMESF (inactive)
COc1ccc([C@]2(C(C)C)ON(c3ccccc3C(F)(F)F)C2=O)cc1	4.65 kMESF (inactive)
C=CCn1c(C)c(/C=C/c2cc[n+](C)cc2)c2ccccc21	10.8 kMESF (inactive)
CC(C)[C@]1(c2ccccc2)ON(c2ccccc2C(F)(F)F)C1=O	2.53 kMESF (inactive)
O=C1c2ccccc2C(=O)N1OS(=O)(=O)c1ccccc1	8.7 kMESF (inactive)
O=C1C(Cl)=C(N2CCN(Cc3ccccc3)CC2)C(=O)N1c1ccccc1	4.11 kMESF (inactive)
Cc1ccc(/C=C/C(=O)c2ccc([N+](=O)[O-])o2)cc1	9.71 kMESF (inactive)
Cc1cc2ccccn2c1C(=O)c1ccc([N+](=O)[O-])o1	-3.89 kMESF (inactive)
COc1cc(NC(=O)c2ccccc2[N+](=O)[O-])ccc1NC(=O)c1cc2ccccc2o1	3.31 kMESF (inactive)
CC(C)Cn1c(=O)c(C(=O)Nc2ccncc2)c(O)c2ccccc21	2.36 kMESF (inactive)
COc1ccccc1C(=O)NNC(=S)NC(=O)c1cccs1	6.21 kMESF (inactive)
Cc1ccc(/C=c2\sc3nc(-c4cccs4)nn3c2=O)o1	7.32 kMESF (inactive)
O=C1c2cccc3c([N+](=O)[O-])ccc(c23)C(=O)N1O	3.64 kMESF (inactive)
COc1ccc(CCNC2=C(Cl)C(=O)N(CCc3ccc(OC)c(OC)c3)C2=O)cc1OC	5.91 kMESF (inactive)
CC(=O)CSc1ncnc2c1cnn2-c1ccccc1	3.61 kMESF (inactive)
NC(=O)COc1ccc(C(=O)/C=C2/C(=O)Nc3ccccc32)cc1	6.78 kMESF (inactive)

SMILES	LAP4-GFP fluorescence (kMESF)
Cc1ccccc1[C@]1(C)ON(c2ccccc2C(F)(F)F)C1=O	3.24 kMESF (inactive)
CS(=O)(=O)N1N=C(c2ccccc2)CC1c1ccc2c(c1)OCO2 (configuration not stated)	-20.2 kMESF (inactive)
COc1ccc(C=C2C(=O)c3ccccc3C2=O)cc1O	3.24 kMESF (inactive)
C=CCOc1ccc(C(=O)/C=C2/C(=O)Nc3ccccc32)cc1	7.99 kMESF (inactive)
O=C(Oc1cccc2cccnc12)c1ccc(Br)o1	3.74 kMESF (inactive)
COc1cccc2cc(-c3nc4ccccc4o3)c(=O)oc12	3.03 kMESF (inactive)
O=C1CC(c2ccccc2)=NN1c1nc(-c2ccccc2)cs1	3.94 kMESF (inactive)
O=C1Nc2ccc(Br)cc2/C1=C/C(=O)c1ccc2c(c1)OCO2	10.4 kMESF (inactive)
COc1ccc([C@@]2(C(C)C)ON(c3ccccc3C(F)(F)F)C2=O)cc1	4.38 kMESF (inactive)
CC(C)C[C@]1(c2ccccc2)ON(c2ccccc2C(F)(F)F)C1=O	2.53 kMESF (inactive)
O=C(/C=C/c1ccccc1[N+](=O)[O-])c1ccccc1Br	15.6 kMESF (inactive)
CCOC(=O)c1c(C)oc2c1c(C(c1ccncc1)N1CCOCC1)c(O)c1ccccc12 (configuration not stated)	6.29 kMESF (inactive)
O=C(/C=C/c1ccnc2ccccc12)c1cccs1	11.4 kMESF (inactive)
Cc1c(Br)c(=O)oc2c(Br)c(O)c(O)cc12	2.43 kMESF (inactive)
COc1ccc(N2C(=O)C(Cl)=C(Nc3c(C)n(C)n(-c4ccccc4)c3=O)C2=O)cc1	4.31 kMESF (inactive)
Cc1nn(C)c(C)c1N1C(=O)c2cccc3c(Br)ccc(c23)C1=O	5.85 kMESF (inactive)
CCC(=O)Nc1ccc(NC(=O)c2cc3ccccc3o2)c(OC)c1	3.41 kMESF (inactive)
Nc1ccccc1SC(C[N+](=O)[O-])c1ccccc1 (configuration not stated)	11.5 kMESF (inactive)
CC(=O)n1cc(C(C[N+](=O)[O-])SCCN)c2ccccc21 (configuration not stated)	4.35 kMESF (inactive)
O=C(c1ccc([N+](=O)[O-])o1)N1CCN(c2nc3c(F)cc(F)cc3s2)CC1	-0.9 kMESF (inactive)
Cc1ccc(C(=O)O/N=C(\N)Cc2cccs2)c(Cl)c1	13.1 kMESF (inactive)
Cc1cc(C)c(OCC(=O)Nc2nc(-c3ccccn3)cs2)c(C)c1	5.78 kMESF (inactive)

SMILES	LAP4-GFP fluorescence (kMESF)
O/C=c1\ccc2cccc3nc(C(F)(F)F)nc1c23	15.8 kMESF (inactive)
CCOC(=O)CS(=O)(=O)c1nc(-c2ccc(F)cc2)cc(C(F)(F)F)n1	11.2 kMESF (inactive)
CCOc1ccccc1/C=c1\sc2ncnn2c1=O	19 kMESF (inactive)
C#CCOCCOCCOCCNc1nc(N2CCN(C(=O)CCCCCCCCCCNC(=O)[C@H](CCCCN)n3cc(CCO)nn3)CC2)nc(N2CCN(C(=O)CCCCCCCCCCNC(=O)[C@H](CCCN=C(N)N)n3cc(C[C@@H](C)CC)nn3)CC2)n1	6.17 kMESF (inactive)
CCCOc1ccc(C(=O)NNC(=S)NC(=O)c2ccccc2)cc1	8.22 kMESF (inactive)
COc1ccc(-c2cc3cc(C(=O)O)ccn3c2C(=O)c2ccccc2)cc1	6.45 kMESF (inactive)
CCC(=O)Oc1oc(-c2ccccc2)nc1C=Nc1ccccc1OC	4.64 kMESF (inactive)
Cc1ccc(C(CC(=O)O)NC(=O)c2ccc(S(=O)(=O)N3CC(C)OC(C)C3)cc2)cc1 (configuration not stated)	3.28 kMESF (inactive)
CCc1ccc(/C=C/C(=O)c2cc(Br)ccc(=O)c2O)cc1	9 kMESF (inactive)
O=C(C#Cc1cccc([N+](=O)[O-])c1)c1ccccc1	8.01 kMESF (inactive)
O=C1N(c2ccccc2C(F)(F)F)O[C@]1(c1ccccc1)C1CCCCC1	2.33 kMESF (inactive)
Cc1ccc(NC(=O)c2cc(N3C(=O)C=CC3=O)ccc2Cl)cc1C	4.75 kMESF (inactive)
O=C1ON=C(c2ccc(Cl)cc2)/C1=C/c1ccc(O)cc1	6.72 kMESF (inactive)
COc1ccc(N/N=C(\C#N)C(N)=O)cc1	13.2 kMESF (inactive)
Cc1cc(C)c2c(c1)/C(=C/C(=O)c1ccc(Br)s1)C(=O)N2	6.56 kMESF (inactive)
Oc1ccc(N=Nc2ccccc2)o1	18.8 kMESF (inactive)
CC(Oc1cc2oc(=O)c3c(c2cc1Cl)CCC3)C(=O)NCCN1CCOCC1 (configuration not stated)	2.43 kMESF (inactive)
CC(C)[C@@]1(c2ccc(Cl)cc2)ON(c2ccccc2C(F)(F)F)C1=O	3.53 kMESF (inactive)
Oc1cc(-c2ccc(N3CCCCC3)nc2)cc2cccnc12	4.15 kMESF (inactive)
CC(=O)Oc1ccc(/C=c2\sc3ncnn3c2=O)cc1	10.1 kMESF (inactive)
C=C1C(O)[C@@H]2O[C@]3(CC[C@H](/C=C/C(C)[C@@H]4CC(C)=CC5(O[C@H](C[C@@](C)(O)C(=O)O)CCC5O)O4)O3)CC[C@H]2O[C@@H]1C(O)CC(C)[C@H]1OC2(CCCCO2)CCC1C (some centres not stated)	11.7 kMESF (inactive)
